In patent publication US9302999B2, “Substituted triazoles as herbicides” (E. I. DU PONT DE NEMOURS AND COMPANY, priority 2012, dated 2016):

What was measured:
corn (Zea mays) = test: Test C pre-/postemergence: corn; type: in vivo
In short: (§1)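 Preemergence on seeds in loam/sand, postemergence on 2–18 cm (1–4-leaf) plants in peat-based medium; compounds in non-phytotoxic solvent with surfactant. After 13–15 days in greenhouse, visual rating versus controls, 0 (no effect) to 100 (complete control).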

rice (Oryza sativa) = test: Test B flooded paddy: rice; type: in vivo; conditions: Flood, applied to paddy water at 2-leaf stage, visually evaluated after 13 to 15 days
In short: (§2)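 Plants were grown to the 2-leaf stage, then pots were flooded to 3 cm above the soil and compounds were applied directly into the paddy water. Water depth was held for the whole test; after 13 to 15 days in a greenhouse, injury was visually rated against untreated controls (0 = no effect, 100 = complete control).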

wild oat (Avena fatua) = test: Test C pre-/postemergence: wild oat; type: in vivo
In short: as §1

soybean (Glycine max) = test: Test C pre-/postemergence: soybean; type: in vivo
In short: as §1

[1] = system: sedge, umbrella (small-flower umbrella sedge Cyperus difformis); test: Test B flooded paddy: sedge, umbrella; type: in vivo; conditions: Flood, applied to paddy water at 2-leaf stage, visually evaluated after 13 to 15 days
In short: as §2

Waterhemp = test: Test C postemergence: waterhemp; type: in vivo
Description: (§3) At the same time, plants selected from these crop and weed species and also barley (winter barley, Hordeum vulgare), canarygrass (Phalaris minor), chickweed (common chickweed, Stellaria media) windgrass (Apera spica-venti) and deadnettle (henbit deadnettle, Lamium amplexicaule) were planted in pots containing Redi-Earth® planting medium (Scotts Company, 14111 Scottslawn Road, Marysville, Ohio 43041) comprising spaghnum peat moss, vermiculite, wetting agent and starter nutrients and treated with postemergence applications of test chemicals formulated in the same manner. Plants ranged in height from 2 to 18 cm (1- to 4-leaf stage) for postemergence treatments.
(§4) Treated plants and controls were maintained in a greenhouse for 13 to 15 days, after which time all species were compared to controls and visually evaluated. Plant response ratings, summarized in Table C, are based on a scale of 0 to 100 where 0 is no effect and 100 is complete control. A dash (-) response means no test result.

[2] = system: lambsquarters (Chenopodium album); test: Test C pre-/postemergence: lambsquarters; type: in vivo
In short: as §1

[3] = system: ducksalad (Heteranthera limosa); test: Test B flooded paddy: ducksalad; type: in vivo; conditions: Flood, applied to paddy water at 2-leaf stage, visually evaluated after 13 to 15 days
In short: as §2

Barnyardgrass = test: Test C postemergence: barnyardgrass; type: in vivo, Echinochloa crus-galli; conditions: 125 g ai/ha, scale 0 to 100, 0 no effect, 100 complete control
Description: Seeds of plant species selected from blackgrass (Alopecurus myosuroides), bromegrass, downy (downy bromegrass, Bromus tectorum), foxtail, green (green foxtail, Setaria viridis), ryegrass, Italian (Italian ryegrass, Lolium multiflorum), winter wheat (Triticum aestivum), wild oat (Avena fatua), galium (catchweed bedstraw, Galium aparine), bermudagrass (Cynodon dactylon), surinam grass (Brachiaria decumbens), cocklebur (common cocklebur, Xanthium strumarium), corn (Zea mays), large crabgrass (Digitaria sanguinalis), woolly cupgrass (Eriochloa villosa), foxtail, giant (giant foxtail, Setaria faberii), goosegrass (Eleusine indica), johnsongrass (Sorghum halepense), kochia (Kochia scoparia), lambsquarters (Chenopodium album), morningglory (Ipomoea coccinea), nightshade (eastern black nightshade, Solanum ptycanthum), nutsedge, yellow (yellow nutsedge, Cyperus esculentus), pigweed (Amaranthus retroflexus), ragweed (common ragweed, Ambrosia elation), soybean (Glycine max), common (oilseed) sunflower (Helianthus annuus), Russian thistle (Salsola kali) and velvetleaf (Abutilon theophrasti) were planted into a blend of loam soil and sand and treated preemergence with test chemicals formulated in a non-phytotoxic solvent mixture which included a surfactant.
as §3, §4

[4] = system: velvetleaf (Abutilon theophrasti); test: Test C pre-/postemergence: velvetleaf; type: in vivo
In short: as §1

[5] = system: foxtail, giant (giant foxtail, Setaria faberii); test: Test C pre-/postemergence: foxtail, giant; type: in vivo
In short: as §1

[6] = system: bermudagrass (Cynodon dactylon); test: Test C pre-/postemergence: bermudagrass; type: in vivo
In short: as §1

[7] = system: deadnettle (henbit deadnettle, Lamium amplexicaule); test: Test C postemergence: deadnettle; type: in vivo
In short: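 Pot-grown plants in peat/vermiculite medium sprayed postemergence at 2–18 cm height (1- to 4-leaf stage). Kept in greenhouse 13 to 15 days, then visually rated against untreated controls on a 0–100 scale (0 = no effect, 100 = complete control).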

[8] = system: surinam grass (Brachiaria decumbens); test: Test C pre-/postemergence: surinam grass; type: in vivo
In short: as §1

[9] = system: woolly cupgrass (Eriochloa villosa); test: Test C pre-/postemergence: woolly cupgrass; type: in vivo
In short: as §1

[10] = Postemergence, 31 g ai/ha, scale 0 to 100 (0 no effect, 100 complete control)
[11] = Postemergence, 62 g ai/ha, scale 0 to 100 (0 no effect, 100 complete control)
[12] = Postemergence, 125 g ai/ha, scale 0 to 100, 0 no effect, 100 complete control
[13] = Postemergence, 250 g ai/ha, scale 0 to 100
[14] = Preemergence, 31 g ai/ha, scale 0 (no effect) to 100 (complete control)
[15] = Preemergence, 62 g ai/ha, scale of 0 to 100, 0 is no effect, 100 is complete control
[16] = Preemergence, 125 g ai/ha, scale 0 to 100, 0 no effect, 100 complete control
[17] = Preemergence, 250 g ai/ha, scale 0 to 100, 0 no effect, 100 complete control
[18] = 31 g ai/ha, scale 0 to 100 (0 no effect, 100 complete control)
[19] = 62 g ai/ha, scale 0 to 100 (0 no effect, 100 complete control)
[20] = Preemergence, 62 g ai/ha, scale 0 to 100, 0 no effect, 100 complete control
[21] = Postemergence, 250 g ai/ha, scale 0 to 100 (0 no effect, 100 complete control)

CCOc1nn(-c2ccc(C(F)(F)F)cc2)nc1Cc1ccnc(C(F)(F)F)c1 [Compound 164, 4-[[5-ethoxy-2-[4-(trifluoromethyl)phenyl]-2H-1,2,3-triazol-4-yl]methyl]-2-(trifluoromethyl)pyridine]
98: Plant response rating, Foxtail, Giant [5, 16]
75: Plant response rating, Sedge, Umbrella (0 to 100 scale, 0 is no effect, 100 is complete control) ([1]; 125 g ai/ha) | Plant response rating, Waterhemp (Waterhemp; 250 g ai/ha, scale 0 to 100)
20: Plant response rating, Corn (corn (Zea mays); [12]) | Plant response rating, Corn (corn (Zea mays); [13]) | Plant response rating, Foxtail, Giant [5, 11] | Plant response rating, Foxtail, Giant [5, 12]
100: Plant response rating, Foxtail, Giant [5, 17]
70: Plant response rating, Lambsquarters [2, 13] | Plant response rating, Velvetleaf [4, 17]
55: Plant response rating, Lambsquarters [2, 11]
85: Plant response rating, Lambsquarters [2, 14] | Plant response rating, Lambsquarters [2, 15]
35: Plant response rating, Waterhemp (Waterhemp; [18]) | Plant response rating, Foxtail, Giant [5, 13]
10: Plant response rating, Corn (corn (Zea mays); [16]) | Plant response rating, Corn (corn (Zea mays); [17]) | Plant response rating, Oat, Wild (wild oat (Avena fatua); [13]) | Plant response rating, Barnyardgrass (Barnyardgrass) | Plant response rating, Velvetleaf [4, 14] | Plant response rating, Velvetleaf [4, 15] | Plant response rating, Foxtail, Giant [5, 10]
30: Plant response rating, Soybean (soybean (Glycine max); [10]) | Plant response rating, Velvetleaf [4, 11] | Plant response rating, Velvetleaf [4, 16]
25: Plant response rating, Velvetleaf [4, 10]
65: Plant response rating, Waterhemp (Waterhemp; [19]) | Plant response rating, Foxtail, Giant [5, 15]
45: Plant response rating, Rice (0 to 100 scale, 0 is no effect, 100 is complete control) (rice (Oryza sativa); 125 g ai/ha)
50: Plant response rating, Soybean (soybean (Glycine max); [13]) | Plant response rating, Lambsquarters [2, 10] | Plant response rating, Foxtail, Giant [5, 14]
40: Plant response rating, Soybean (soybean (Glycine max); [11]) | Plant response rating, Velvetleaf [4, 12] | Plant response rating, Velvetleaf [4, 13]
0: Plant response rating, Corn (corn (Zea mays); [14]) | Plant response rating, Soybean (soybean (Glycine max); [14]) | Plant response rating, Soybean (soybean (Glycine max); [15]) | Plant response rating, Ducksalad (0 to 100 scale, 0 is no effect, 100 is complete control) ([3]; 125 g ai/ha)
15: Plant response rating, Corn (corn (Zea mays); [10]) | Plant response rating, Corn (corn (Zea mays); [11])
60: Plant response rating, Lambsquarters [2, 12]
95: Plant response rating, Lambsquarters [2, 16] | Plant response rating, Lambsquarters [2, 17]
5: Plant response rating, Corn (corn (Zea mays); [15]) | Plant response rating, Oat, Wild (wild oat (Avena fatua); [10]) | Plant response rating, Oat, Wild (wild oat (Avena fatua); [11]) | Plant response rating, Oat, Wild (wild oat (Avena fatua); [12]) | Plant response rating, Soybean (soybean (Glycine max); [16]) | Plant response rating, Soybean (soybean (Glycine max); [17])

CCOc1nn(-c2ccc(F)cc2)nc1Cc1ccnc(C(F)(F)F)c1 [Compound 196, 4-[[5-ethoxy-2-(4-fluorophenyl)-2H-1,2,3-triazol-4-yl]methyl]-2-(trifluoromethyl)pyridine]
75: Plant response rating, Velvetleaf [4, 12] | Plant response rating, Surinam Grass [8, 21]
95: Plant response rating, Lambsquarters [2, 10] | Plant response rating, Lambsquarters [2, 11] | Plant response rating, Lambsquarters [2, 12] | Plant response rating, Lambsquarters [2, 21] | Plant response rating, Lambsquarters [2, 16] | Plant response rating, Lambsquarters [2, 17]
80: Plant response rating, Bermudagrass [6, 10] | Plant response rating, Bermudagrass [6, 11] | Plant response rating, Oat, Wild (wild oat (Avena fatua); [14]) | Plant response rating, Velvetleaf [4, 21] | Plant response rating, Velvetleaf [4, 16] | Plant response rating, Cupgrass, Woolly [9, 11]
65: Plant response rating, Corn (corn (Zea mays); [12]) | Plant response rating, Corn (corn (Zea mays); [13]) | Plant response rating, Soybean (soybean (Glycine max); [12]) | Plant response rating, Velvetleaf [4, 11]
70: Plant response rating, Rice (0 to 100 scale, 0 is no effect, 100 is complete control) (rice (Oryza sativa); 250 g ai/ha) | Plant response rating, Soybean (soybean (Glycine max); [21]) | Plant response rating, Velvetleaf [4, 20] | Plant response rating, Surinam Grass [8, 11] | Plant response rating, Surinam Grass [8, 12]
35: Plant response rating, Corn (corn (Zea mays); [20]) | Plant response rating, Soybean (soybean (Glycine max); [17]) | Plant response rating, Surinam Grass [8, 10]
10: Plant response rating, Soybean (soybean (Glycine max); [14])
100: Plant response rating, Bermudagrass [6, 16] | Plant response rating, Bermudagrass [6, 17] | Plant response rating, Deadnettle [7, 18] | Plant response rating, Deadnettle [7, 19] | Plant response rating, Deadnettle ([7]; 125 g ai/ha, scale 0 to 100, 0 no effect, 100 complete control) | Plant response rating, Deadnettle ([7]; 250 g ai/ha, scale 0 to 100) | Plant response rating, Sedge, Umbrella (0 to 100 scale, 0 is no effect, 100 is complete control) ([1]; 250 g ai/ha) | Plant response rating, Ducksalad (0 to 100 scale, 0 is no effect, 100 is complete control) ([3]; 250 g ai/ha) | Plant response rating, Velvetleaf [4, 17] | Plant response rating, Surinam Grass [8, 16] | Plant response rating, Surinam Grass [8, 17] | Plant response rating, Cupgrass, Woolly [9, 16] | Plant response rating, Cupgrass, Woolly [9, 17] | Plant response rating, Foxtail, Giant [5, 14] | Plant response rating, Foxtail, Giant [5, 20] | Plant response rating, Foxtail, Giant [5, 16] | Plant response rating, Foxtail, Giant [5, 17]
60: Plant response rating, Corn (corn (Zea mays); [10]) | Plant response rating, Corn (corn (Zea mays); [11]) | Plant response rating, Velvetleaf [4, 14]
25: Plant response rating, Corn (corn (Zea mays); [14])
85: Plant response rating, Bermudagrass [6, 12] | Plant response rating, Oat, Wild (wild oat (Avena fatua); [11]) | Plant response rating, Oat, Wild (wild oat (Avena fatua); [12]) | Plant response rating, Lambsquarters [2, 14] | Plant response rating, Cupgrass, Woolly [9, 12] | Plant response rating, Foxtail, Giant [5, 10] | Plant response rating, Foxtail, Giant [5, 11]
15: Plant response rating, Soybean (soybean (Glycine max); [20])
30: Plant response rating, Soybean (soybean (Glycine max); [16]) | Plant response rating, Cupgrass, Woolly [9, 10]
55: Plant response rating, Oat, Wild (wild oat (Avena fatua); [10]) | Plant response rating, Velvetleaf [4, 10]
90: Plant response rating, Bermudagrass [6, 13] | Plant response rating, Oat, Wild (wild oat (Avena fatua); [21]) | Plant response rating, Oat, Wild (wild oat (Avena fatua); [20]) | Plant response rating, Oat, Wild (wild oat (Avena fatua); [16]) | Plant response rating, Oat, Wild (wild oat (Avena fatua); [17]) | Plant response rating, Lambsquarters [2, 20] | Plant response rating, Surinam Grass [8, 14] | Plant response rating, Cupgrass, Woolly [9, 13] | Plant response rating, Cupgrass, Woolly [9, 14] | Plant response rating, Foxtail, Giant [5, 12] | Plant response rating, Foxtail, Giant [5, 13]
50: Plant response rating, Corn (corn (Zea mays); [17]) | Plant response rating, Soybean (soybean (Glycine max); [11])
98: Plant response rating, Bermudagrass [6, 14] | Plant response rating, Bermudagrass [6, 20] | Plant response rating, Surinam Grass [8, 20] | Plant response rating, Cupgrass, Woolly [9, 20]
45: Plant response rating, Corn (corn (Zea mays); [16]) | Plant response rating, Soybean (soybean (Glycine max); [10])
